# Where no end group is shown, it is not given here.
# B1: JIP1 scaffold protein: JIP1 (JNK-interacting protein 1) scaffold protein (protein, UniProt Q9UQF2 1-711, looked up)
# C-Jun-amino-terminal …: MAERESGGLGGGAASPPAASPFLGLHIASPPNFRLTHDISLEEFEDEDLSEITDECGISLQCKDTLSLRPPRAGLLSAGGGGAGSRLQAEMLQMDLIDATGDTPGAEDDEEDDDEERAARRPGAGPPKAESGQEPASRGQGQSQGQSQGPGSGDTYRPKRPTTLNLFPQVPRSQDTLNNNSLGKKHSWQDRVSRSSSPLKTGEQTPPHEHICLSDELPPQSGPAPTTDRGTSTDSPCRRSTATQMAPPGGPPAAPPGGRGHSHRDRIHYQADVRLEATEEIYLTPVQRPPDAAEPTSAFLPPTESRMSVSSDPDPAAYPSTAGRPHPSISEEEEGFDCLSSPERAEPPGGGWRGSLGEPPPPPRASLSSDTSALSYDSVKYTLVVDEHAQLELVSLRPCFGDYSDESDSATVYDNCASVSSPYESAIGEEYEEAPRPQPPACLSEDSTPDEPDVHFSKKFLNVFMSGRSRSSSAESFGLFSCIINGEEQEQTHRAIFRFVPRHEDELELEVDDPLLVELQAEDYWYEAYNMRTGARGVFPAYYAIEVTKEPEHMAALAKNSDWVDQFRVKFLGSVQVPYHKGNDVLCAAMQKIATTRRLTVHFNPPSSCVLEISVRGVKIGVKADDSQEAKGNKCSHFFQLKNISFCGYHPKNNKYFGFITKHPADHRFACHVFVSEDSTKALAESVGRAFQQFYKQFVEYTCPTEDIYLE
# Legend:
# activated His–JNK2–FLAG = activated His–JNK2–FLAG (Homo sapiens, UniProt P45984); assay: biochemical
# Endogenous MKK7 = assay: Co-immunoprecipitation of endogenous WDR62 with MKK7, HEK-293T; type: binding, human; details: anti-WDR62 3G8
# EGFP–JNK1 = assay: Immunofluorescence, recruitment of EGFP–JNK1 to cellular granules in HeLa cells; type: cell-based, human; details: 24 h after transfection, confocal microscopy
# JNK3 = assay: GST pull-down with WDR62 1018-C–GST constructs; type: binding, human; details: HEK-293T
# endogenous JNK2 = assay: Co-immunoprecipitation of endogenous WDR62 with JNK2, HEK-293T; type: binding, human; details: anti-WDR62 3G8
# JNK1 = assay: Co-immunoprecipitation of endogenous WDR62 with JNK1, HEK-293T; type: binding, human; details: authors attribute it to lower JNK1 expression level
# MKK7α and MKK7β = details: cited from earlier work
# Chain of activated His–JNK2–FLAG (P45984 whole entry): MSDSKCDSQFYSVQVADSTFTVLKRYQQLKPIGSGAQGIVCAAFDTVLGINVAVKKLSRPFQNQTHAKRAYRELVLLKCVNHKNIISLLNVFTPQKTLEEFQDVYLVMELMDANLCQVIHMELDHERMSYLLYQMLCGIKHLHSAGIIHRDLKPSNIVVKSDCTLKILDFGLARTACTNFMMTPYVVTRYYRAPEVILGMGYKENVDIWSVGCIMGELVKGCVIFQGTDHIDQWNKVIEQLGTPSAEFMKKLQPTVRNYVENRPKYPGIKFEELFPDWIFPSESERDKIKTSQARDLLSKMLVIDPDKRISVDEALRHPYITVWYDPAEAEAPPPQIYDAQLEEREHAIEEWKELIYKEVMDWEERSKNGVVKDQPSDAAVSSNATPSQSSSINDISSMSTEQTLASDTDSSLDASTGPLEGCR
molecule,measurement,setting,value
GRKKRRQRRRPPNHEARANLRLTLSSACDGLL [WDR62 peptide],IC50,activated His–JNK2–FLAG,5 µM
"WDR62: full-length WDR62 (endogenous, or Myc-tagged wild-type); JNK scaffold protein",co-precipitation of endogenous MKK7,Endogenous MKK7,also detected
same,recruitment of EGFP–JNK1 to cellular granules,EGFP–JNK1,efficiently recruited to these granules
same,association with JNK3,JNK3,strongest association with the neuronal-enriched JNK3 isoform
same,co-precipitation of endogenous JNK2,endogenous JNK2,presence of endogenous JNK2
same,interaction with JNK1,JNK1,lack of interaction
B1,interaction with MKK7α and MKK7β,MKK7α and MKK7β,interacts with both MKK7α and MKK7β

# Source: article PMC3462610 (Biochemical Journal, 2011)
